Results on one compound are retold here after patent publication US20230233617A1, “METHODS FOR DIFFERENTIATING STEM CELLS INTO DOPAMINERGIC PROGENITOR CELLS” (JZ CELL TECHNOLOGIES AB, priority 2020, published 2023).

The test system of one test is β-catenin. In words: β-CATENIN nuclear levels in cultures at 2 DDC. The format is cell-based, human. Particulars: dSMADi+SAG. An excerpt:
FIG. 2: Specification of NSC with ventral midbrain identity using RA and SHH signaling. (a) Schematic of hPSCs differentiation with timeline of treatment with RA and activator of SHH signaling (SAG) (top). Immunocytochemistry for indicated markers at 9 DDC in cultures differentiated in dSMADi+SAG-condition and pulsed with RA for 1-, 2- or 4-days (bottom). (b) Relative gene expression (FPKM) of indicated genes in 9 DDC cultures differentiated in dSMADi+SAG-conditions and treated with RA for the indicated time. (c) Heatmap and hierarchical clustering of differentially expressed genes of 9 DDC cultures differentiated in dSMADi+SAG-condition and treated with RA for the indicated time. (d) Schematic of gene expression profiles defining distinct ventral progenitors in the diencephalon (Di), midbrain (MB) and hindbrain (HB) positions. (e) Expression of genes associated with the indicated regional progenitors at 14 DDC in cultures differentiated in dSMADi+SAG+RA^2D condition. (f) Immunocytochemistry for β-CATENIN (left) and boxplots of β-CATENIN nuclear levels (right) in cultures at 2 DDC differentiated in dSMADi+SAG-condition (control) and treated with RA or CHIR99021. Boxplot, whiskers define 5th and 95th percentile. Asterisks, Student t test; **p<0.01, ***p<0.001. (g) Immunocytochemistry for the indicated markers in cultures at 14 DDC differentiated in dSMADi+SAG+RA^2D condition. […]

Test [1] concerns hPSC-derived ventral midbrain dopaminergic progenitors. Kind of test: Specification of caudal midbrain identity (EN1 immunocytochemistry). The format is cell-based, human. Particulars: RA^2D+SAG. The procedure:
(a) (a) Immunocytochemical analysis of ventral MB progenitor identities at 14 DDC. […] Nuclei of cells visualized with DAPI staining. (b) Immunocytochemistry of dopaminergic neuron marker TH and caudal midbrain marker EN1 expression in 40 DDC cultures differentiated in indicated conditions.
Cells were fixed for 12 min at room temperature (RT) in 4% paraformaldehyde in PBS, rinsed 3 times in PBST (PBS with 0.1% Triton-X100), and blocked for 1 hour at RT with blocking solution (3% FCS/0.1% Triton-X100 in PBS). Cells were then incubated with primary antibodies overnight at 4° C., followed by incubation with fluorophore-conjugated secondary antibodies for 1 hour at RT. Both primary and fluorophore-conjugated secondary antibodies were diluted in blocking solution. Primary antibodies used are listed in Supplementary Table 1. Appropriate Alexa (488, 555, 647)-conjugated secondary antibodies (Molecular Probes) were used.
Mechanisms underlying specification of midbrain dopamine neuron subtypes remains poorly resolved, but is likely to involve sub-patterning of ventral midbrain dopaminergic progenitors along the mediolateral and rostro-caudal axes of the midbrain (Brignani, S, and Pasterkamp, R. J., Front. Neuroanat. 11, 1-18 (2017)). WNT1 signaling emanating from the isthmic organizer at the midbrain-hindbrain boundary establish polarity of midbrain progenitors along the rostro-caudal axis by inducing a caudal^HIGH-to-rostral^LOW expression gradient of the homeodomain proteins EN1 and EN2 (Wurst, W. and Bally-Cuif, L. Nat. Rev. Neuroscience 2, 99-108 (2001)).

For the compound `CC1=C(/C=C/C(C)=C/C=C/C(C)=C/C(=O)O)C(C)(C)CCC1` [RA, all-trans retinoic acid], in the test on β-catenin, the β-catenin in nuclei result is “no accumulation of β-catenin in nuclei”. Besides, in test [1] (14DDC), the “identity of ventral midbrain progenitors (EN1)” value is on record as “LMX1A^+/OTX2^+/EN1^− identity”. Besides, the “EN1 expression in TH+ dopamine neurons” value in test [1] (40DDC) was “a small proportion of TH^+ dopamine neurons expressed EN1”.
